Reference: the supplement of paper PMC10307832

How the values were obtained:
Assay in all cases: relative viability (nuclei count vs DMSO), 5 days (fraction); higher = more cells survive
Cediranib + Alpelisib = compound: COc1cc2c(Oc3ccc4[nH]c(C)cc4c3F)ncnc2cc1OCCCN1CCCC1 [Cediranib] + Cc1nc(NC(=O)N2CCC[C@H]2C(N)=O)sc1-c1ccnc(C(C)(C)C(F)(F)F)c1 [Alpelisib] (partner 2 µM)
Method in brief: (§1)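 Relative viability was taken as the ratio of nuclei in treated wells to nuclei in vehicle wells. Lung cancer cell lines in 1536-well plates received compounds by pin tool one day after seeding, either one drug alone or a fixed anchor-drug dose plus five library-drug doses (not always all listed) in √10 steps. Nuclei were counted on 4× images after 5 days of treatment, and values are medians of duplicate plates.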

[1] = compound: O=C(C[C@H]1NCCC[C@@H]1O)Cn1cnc2cc(Br)c(Cl)cc2c1=O (racemic) [Halofuginone] + Nc1nc2[nH]cc(CCc3ccc(C(=O)N[C@@H](CCC(=O)O)C(=O)O)cc3)c2c(=O)[nH]1 [Pemetrexed] (partner 0.2 µM)
Method in brief: as §1

Decitabine + Bortezomib = compound: Nc1ncn([C@H]2C[C@H](O)[C@@H](CO)O2)c(=O)n1 [Decitabine] + CC(C)C[C@H](NC(=O)[C@H](Cc1ccccc1)NC(=O)c1cnccn1)B(O)O [Bortezomib] (partner 0.002 µM)
Method in brief: as §1

Cediranib + Olaparib = compound: COc1cc2c(Oc3ccc4[nH]c(C)cc4c3F)ncnc2cc1OCCCN1CCCC1 [Cediranib] + O=C(c1cc(Cc2n[nH]c(=O)c3ccccc23)ccc1F)N1CCN(C(=O)C2CC2)CC1 [Olaparib] (partner 8 µM)
Method in brief: as §1

Cell Line | relative viability (Cediranib + Alpelisib; first compound 0.04 µM) | relative viability (Cediranib + Alpelisib; first compound 0.1265 µM) | relative viability (Cediranib + Alpelisib; first compound 0.4 µM) | relative viability (Cediranib + Alpelisib; first compound 1.265 µM) | relative viability (Cediranib + Alpelisib; first compound 4 µM) | relative viability ([1]; first compound 0.001 µM) | relative viability ([1]; first compound 0.003162 µM) | relative viability ([1]; first compound 0.01 µM) | relative viability ([1]; first compound 0.03162 µM) | relative viability ([1]; first compound 0.1 µM) | relative viability (Decitabine + Bortezomib; first compound 0.04 µM) | relative viability (Decitabine + Bortezomib; first compound 0.1265 µM) | relative viability (Decitabine + Bortezomib; first compound 0.4 µM) | relative viability (Decitabine + Bortezomib; first compound 1.265 µM) | relative viability (Decitabine + Bortezomib; first compound 4 µM) | relative viability (Cediranib + Olaparib; first compound 0.04 µM) | relative viability (Cediranib + Olaparib; first compound 0.1265 µM) | relative viability (Cediranib + Olaparib; first compound 0.4 µM) | relative viability (Cediranib + Olaparib; first compound 1.265 µM) | relative viability (Cediranib + Olaparib; first compound 4 µM)
NCI-H1355 | 0.993 | 0.879 | 0.704 | 0.838 | 0.956 | 1.07 | 1 | 1.02 | 1.03 | 0.919 | 0.826 | 0.583 | 0.517 | 0.305 | 0.297 | 0.689 | 0.727 | 0.723 | 0.787 | 0.784
NCI-H1437 | 1.02 | 1.03 | 0.971 | 0.954 | 1.12 | 0.318 | 0.337 | 0.329 | 0.307 | 0.254 | 0.38 | 0.324 | 0.313 | 0.221 | 0.203 | 0.662 | 0.614 | 0.615 | 0.599 | 0.627
NCI-H1651 | 1.04 | 1.03 | 1.02 | 1.01 | 0.805 | 0.56 | 0.489 | 0.568 | 0.572 | 0.592 | 0.96 | 0.936 | 0.824 | 0.682 | 0.76 | 0.189 | 0.18 | 0.179 | 0.166 | 0.185
NCI-H1666 | 1.04 | 0.995 | 0.875 | 0.924 | 0.962 | 0.883 | 0.78 | 0.904 | 0.878 | 0.806 | 0.723 | 0.726 | 0.545 | 0.625 | 0.569 | 0.737 | 0.716 | 0.719 | 0.696 | 0.726
NCI-H1734 | 0.626 | 0.741 | 0.711 | 0.619 | 0.848 | 0.408 | 0.438 | 0.401 | 0.441 | 0.488 | 0.646 | 0.867 | 0.571 | 0.424 | 0.331 | 0.683 | 0.623 | 0.59 | 0.676 | 0.764
NCI-H1755 | 1 | 0.919 | 0.854 | 0.918 | 1.01 | 0.418 | 0.469 | 0.413 | 0.423 | 0.484 | 0.814 | 0.877 | 0.808 | 0.492 | 0.381 | 0.918 | 0.791 | 0.867 | 0.836 | 0.955
NCI-H1792 | 0.762 | 0.939 | 0.648 | 0.718 | 0.589 | 0.922 | 0.813 | 0.53 | 0.891 | 0.391 | 0.927 | 0.99 | 0.923 | 0.444 | 0.521 | – | 0.713 | 0.321 | 0.435 | 0.557
NCI-H1915 | 1.05 | 1 | 0.997 | 1.08 | 1.09 | 0.499 | 0.546 | 0.513 | 0.392 | 0.465 | 0.379 | 0.279 | 0.197 | 0.183 | 0.184 | 0.246 | 0.251 | 0.263 | 0.289 | 0.249
NCI-H1975 | 0.716 | 0.621 | 0.619 | 0.677 | 0.591 | 0.281 | 0.297 | 0.274 | 0.263 | 0.146 | 0.227 | 0.268 | 0.178 | 0.168 | 0.169 | 0.841 | 0.752 | 0.768 | 0.773 | 0.773
NCI-H1993 | 0.734 | 0.709 | 0.631 | 0.677 | 0.791 | 0.664 | 0.577 | 0.564 | 0.652 | 0.508 | 0.925 | 0.898 | 0.839 | 0.777 | 0.672 | – | 0.933 | 0.847 | 1.1 | 1.09
NCI-H2009 | 1.18 | 1.13 | 1.09 | 1.16 | 1.14 | 1.04 | 0.999 | 0.999 | 0.977 | 0.548 | 0.765 | 0.571 | 0.301 | 0.305 | 0.243 | 0.637 | 0.698 | 0.676 | 0.694 | 0.669
NCI-H2023 | 0.667 | 0.706 | 0.58 | 0.559 | 0.667 | 0.297 | 0.185 | 0.213 | 0.152 | 0.0841 | 0.628 | 0.61 | 0.206 | 0.206 | 0.155 | 0.511 | 0.445 | 0.47 | 0.445 | 0.527
NCI-H2085 | 1.02 | 0.94 | 0.974 | 1.09 | 0.953 | 0.93 | 0.873 | 0.872 | 1.03 | 0.783 | 0.751 | 0.801 | 0.58 | 0.451 | 0.366 | 0.737 | 0.729 | 0.745 | 0.8 | 0.746
NCI-H2087 | 1.05 | 1.25 | 1.18 | 1.11 | 1.14 | 0.673 | 0.657 | 0.686 | 0.709 | 0.489 | 0.603 | 0.55 | 0.51 | 0.33 | 0.36 | 0.609 | 0.62 | 0.575 | 0.567 | 0.708
NCI-H2126 | 0.776 | 0.796 | 0.732 | 0.662 | 0.781 | 0.719 | 0.655 | 0.624 | 0.68 | 0.571 | 0.984 | 0.975 | 0.648 | 0.655 | 0.591 | 0.944 | 0.92 | 0.912 | 0.802 | 0.957
NCI-H2228 | 0.955 | 0.85 | 0.791 | 0.929 | 0.826 | 0.32 | 0.29 | 0.345 | 0.273 | 0.074 | 0.788 | 0.755 | 0.389 | 0.314 | 0.229 | 0.801 | 1.02 | 0.642 | 0.707 | 0.556
